Test results: patent publication US5475007A, “1,2,3,4-tetrahydroquinoline-2,3,4-trione-3 or 4-oximes and the use thereof” (priority 1993, dated 1995)
pIC50, pKd, pKi: −log10 of the molar value. Where two headings read alike, the source gives them in different places.

Assays:
[1] = test system: glycine binding site of the NMDA receptor; details: cited from earlier work
[2] = in words; cited from earlier work
[3] = in words; cited from earlier work; remark: listed apart in the source
[4] = cited from earlier work; for PCP-like behavioral side effects: in words
[5] = molecular target: glycine binding site of the NMDA receptor (Rattus norvegicus, UniProt P35439); assay: 1 μM glycine-stimulated [^3 H]-MK801 binding assay (glycine binding assay); details: for potency relative to DCK: DCK = 5,7-dichlorokynurenic acid; for binding to the glycine receptor / selectivity for the glycine receptor: in words
[6] = mouse maximum electroshock seizure model (i.p.); format: in vivo; details: 70 mg/kg i.p. in DMSO, 1 hour before stimulus, 10 mice
Protocol: 5,7-Dichloro-1,2,3,4-tetrahydroquinoline-2,3,4-trione-3-oxime was evaluated for anticonvulsant activity after i.p. administration in the mouse maximum electroshock seizure model. Mice, 30-35 g (male) were injected i.p. with 70 mg/kg of the drug dissolved in DMSO (1 ul/g). Ten mice each were used in the drug and control groups. The control group was injected with an equal volume of DMSO. Seizures were elicited by stimulation with corneal electrodes. The stimulation parameters for eliciting the seizures were as follows: 50 mA, 60 pulses/second square wave, 0.8 ms pulse width, 0.2 sec length of stimulus. Under these conditions, 100% of control animals developed tonic hindlimb extension immediately after the corneal electrical stimulation. A Hugo Basile electroshock seizure stimulator was used for these experiments. The seizure stimulus was applied 1 hour after injection of the drug.

PCP receptor = details: Wong et al. 1986; cited from earlier work
[7] = pigeons; cited from earlier work
[8] = Table 1, glycine binding site, read-out: Ki Gly

NC1CCN(O)C1=O (racemic) [HA-966]
agonism and affinity at the glycine binding site ([1]; in words): partial agonist with micromolar affinity for the glycine binding site | penetration of the blood/brain barrier [2]: sufficiently penetrates the blood/brain barrier

O=C(O)c1cc(O)c2c(Cl)cc(Cl)cc2n1 [5,7-dichlorokynurenic acid]
receptor binding affinity in vitro ([1]; in words): relatively high receptor binding affinity in vitro

O=C(O)c1cc(O)c2ccc(Cl)cc2n1 [7-Cl-kynurenic acid]
receptor binding affinity in vitro ([1]; in words): relatively high receptor binding affinity in vitro | penetration of the blood/brain barrier [2]: cannot penetrate the blood/brain barrier

O=C(O)[C@@H]1C[C@H](CP(=O)(O)O)CCN1 [CGS 19755]
neuroprotective efficacy [3]: have neuroprotective efficacy | PCP-like behavioral side effects [4]: adverse PCP-like behavioral side effects

O=C1Nc2ccccc2C(=NO)C1=O [Compound 14a, 1,2,3,4-Tetrahydroquinoline-2,3,4-trione-4-oxime]
pIC50 ([5]; 1 μM glycine): 4.74 | potency relative to DCK [5]: 14 % of DCK | pKi [5, 8]: 5.77 | binding to the glycine receptor [5]: high binding | selectivity for the glycine receptor [5]: highly selective

O=C1Nc2ccccc2C(=O)C1=NO [Compound 17a, 1,2,3,4-Tetrahydroquinoline-2,3,4-trione-3-oxime]
pKi [5]: 4.70 | potency relative to DCK [5]: 1.3 % of DCK | binding to the glycine receptor [5]: high binding | selectivity for the glycine receptor [5]: highly selective

O=C1Nc2cc(Cl)cc(Cl)c2C(=O)C1=NO [Compound 17b, 5,7-Dichloro-1,2,3,4-tetrahydroquinoline-2,3,4-trione-3-oxime]
pKi [5]: 7.70 | potency relative to DCK [5]: 1126 % of DCK | times more active than the unsubstituted compound 17a ([5]; Ki ratio versus 17a): about 1000 times | prevention of seizures [6]: prevented seizures from occurring in out of 10 animals

O=C1Nc2cc(Cl)c(Cl)cc2C(=O)C1=NO [Compound 17c, 6,7-Dichloro-1,2,3,4-tetrahydroquinoline-2,3,4-trione-3-oxime]
pKi [5]: 7.30 | potency relative to DCK [5]: 439 % of DCK

O=C1Nc2ccc(Cl)c(Cl)c2C(=O)C1=NO [Compound 17d, 5,6-Dichloro-1,2,3,4-tetrahydroquinoline-2,3,4-trione-3-oxime]
pKi [5]: 6.44 | potency relative to DCK [5]: about 55 % of DCK

O=C1Nc2cc(Cl)c(Cl)c(Cl)c2C(=O)C1=NO [Compound 17e, 5,6,7-Trichloro-1,2,3,4-tetrahydroquinoline-2,3,4-trione-3-oxime]
pKi [5]: 7.30 | potency relative to DCK [5]: about 400 % of DCK

CC(=O)ON=C1C(=O)Nc2cc(Cl)cc(Cl)c2C1=O [Compound 18b, 5,7-Dichloro-1,2,3,4-tetrahydroquinoline-2,3,4-trione-3-acetyloxime]
potency relative to DCK [5]: 142 % of DCK | pKi [5, 8]: 6.82 | pKi ([5]; glycine/NMDA receptor, read-out: Ki value): 6.80

O=C(O)[C@@H]1C[C@H]2C[C@@H](CP(=O)(O)O)CC[C@H]2CN1 [LY274614]
neuroprotective efficacy [3]: have neuroprotective efficacy

C[C@]12N[C@H](Cc3ccccc31)c1ccccc12 [MK-801]
pKd (PCP receptor): ~8.52 | neuroprotective efficacy [3]: neuroprotective efficacy both in vitro and in vivo | PCP-like behavioral side effects [4]: adverse PCP-like behavioral side effects

c1ccc(C2(N3CCCCC3)CCCCC2)cc1 [PCP, phencyclidine]
neuroprotective efficacy [3]: neuroprotective efficacy both in vitro and in vivo | behavioral excitation (hyperlocomotion) ([4]; rodents): behavioral excitation | katalepsy [7]: characteristic katalepsy in pigeons

COc1ccc2c(c1)[C@]13CCCC[C@@H]1[C@H](C2)N(C)CC3 [dextromethorphan]
neuroprotective efficacy [3]: neuroprotective efficacy both in vitro and in vivo

NCC(=O)O [glycine]
pKd ([1]; used in Cheng and Prusoff equation, read-out: known affinity of glycine for the glycine binding site): 7.00

O=C(O)c1cc2ccccc2[nH]1 [indole-2-carboxylic acid]
receptor binding affinity in vitro ([1]; in words): relatively high receptor binding affinity in vitro | penetration of the blood/brain barrier [2]: cannot penetrate the blood/brain barrier

CNC1(c2ccccc2Cl)CCCCC1=O (centres unmarked) [ketamine]
neuroprotective efficacy [3]: neuroprotective efficacy both in vitro and in vivo
